Where two headings read alike, the source gives them in different places.
How the values were obtained:
HepG2 cells = test system: HepG2 cells; parameters: method as in Xie et al., 2023; details: ref Xie et al., 2023, cited from earlier work
HeLa cells = test system: HeLa cells; parameters: method as in Srinivas Reddy et al., 2022; details: ref Srinivas Reddy et al., 2022; cited from earlier work
DLD-1 = test system: DLD-1; parameters: method as in Rajitha et al., 2011; details: ref Rajitha et al., 2011; cited from earlier work
MV4-11 = test system: MV4-11; parameters: method as in Rajitha et al., 2011; details: ref Rajitha et al., 2011; cited from earlier work
A549 [1] = test system: A549; parameters: method as in Rajitha et al., 2011; details: ref Rajitha et al., 2011; cited from earlier work
A549 cells [2] = test system: A549 cells; parameters: method as in Bollu et al., 2017; details: ref Bollu et al., 2017; cited from earlier work
HeLa = test system: HeLa; parameters: method as in Yan et al., 2019; details: ref Yan et al., 2019; cited from earlier work
A549 cells [3] = test system: A549 cells; parameters: method as in Yan et al., 2019; details: ref Yan et al., 2019; cited from earlier work
PI3Kα = test system: PI3Kα; parameters: method as in Yan et al., 2019; details: ref Yan et al., 2019; read-out: IC50 against PI3Kα; cited from earlier work
[4] = parameters: method as in Yan et al., 2019; details: mice; ref Yan et al., 2019; cited from earlier work
[5] = CCK-8 cell viability assay, normal cell line; type: cell-based; details: human, BEAS-2B cells (normal cell line), BEAS-2B normal cell line, read-out: Cell viability (100%), 40 μM, 48 h, BEAS-2B
Description: (§1) In order to investigate the anticancer activity of new synthetic 1,4-benzoxazinone-linked 1,2,3-triazole compounds, we chose several cancer cell lines, including A549 (lung), Huh7 (liver), MCF-7 (breast), HCT-116 (colon), and SKOV3 (ovary), and measured cell viability using the CCK-8 assay. Cells were exposed to 40 μM of the compounds for 48 h, and then cell viability was determined. […] In addition, we used the reference drug gefitinib as a positive control and measured its cell viability on different cell lines. […] We used BEAS-2B cells as a normal cell line to determine the toxic effects of these compounds on normal cells. […] Furthermore, we evaluated the IC50 of these compounds in A549.
(§2) Cells were cultured in DMEM or RPMI 1640 medium containing 10% FBS and 1% penicillin/streptomycin at 37°C and 5% CO2. The CCK-8 assay was performed on several human cancer cell lines, including A549, Huh7, MCF-7, HCT-116, and SKOV3, according to the manufacturer’s instructions. Cells were plated at a density of 5 × 10^3 cells per well in a 96-well plate. After 24 h of incubation, cells were treated with 40 μM compounds for 48 h. Cell viability was assessed by adding 10 μL of CCK-8 reagent, dissolved in the cell culture medium, and incubating for 1 h. Absorbance was measured at 450 nm using a microplate reader. IC50 values were determined using a dose-response curve with six concentrations (0, 10, 20, 40, 80, and 160 μM), and IC50 values were calculated using GraphPad Prism software.

A549 [6] = test: CCK-8 cell viability assay and IC50 measurement; type: cell-based, human; details: Homo sapiens; for viability at 40 µM / inhibition at 40 µM: A549, 40 μM, 48 h; for viability at 40 µM: CCK-8, read-out: Cell viability (100%), 40 μM, 48 h, A549; for inhibition at 40 µM: read-out: inhibition rate
Description: as §1
(§3) Human cancer cell lines A549, Huh7, MCF-7, HCT-116, and SKOV3 were obtained from ATCC. The cells were cultured in DMEM or RPMI 1640 medium supplemented with 10% FBS and 1% penicillin/streptomycin and incubated at 37°C in a CO2-humidified atmosphere.
as §2

Huh7 = test: CCK-8 cell viability assay; type: cell-based; details: Homo sapiens, Huh-7, Huh7, 40 μM, 48 h, read-out: Cell viability (100%), 40 μM, 48 h, Huh7
Description: as §1, §3, §2

MCF-7 = test: CCK-8 cell viability assay; type: cell-based; details: Homo sapiens, MCF7, MCF-7, 40 μM, 48 h, read-out: Cell viability (100%), 40 μM, 48 h, MCF-7
Description: as §1, §3, §2

SKOV3 = test: CCK-8 cell viability assay; type: cell-based; details: Homo sapiens, SK-OV-3, SKOV3, 40 μM, 48 h, read-out: Cell viability (100%), 40 μM, 48 h, SKOV3
Description: as §1, §3, §2

HCT-116 = test: CCK-8 cell viability assay; type: cell-based; details: Homo sapiens, HCT-116, 40 μM, 48 h, read-out: Cell viability (100%), 40 μM, 48 h, HCT-116
Description: as §1, §3, §2

HCT116 cells [7] = test system: HCT116 cells; parameters: method as in Mohammed et al., 2022; details: MTT assay; ref Mohammed et al., 2022; cited from earlier work
topoisomerase II [8] = biological target: topoisomerase II; parameters: method as in Mohammed et al., 2022; details: ref Mohammed et al., 2022; cited from earlier work
A549 lung cancer cell = test system: A549 lung cancer cell; parameters: method as in Zhou et al. (2014); details: by inducing autophagy and cell cycle arrest; ref Zhou et al. (2014); cited from earlier work
topoisomerase I = test system: topoisomerase I; parameters: method as in El Hamaky et al., 2024; details: ref El Hamaky et al., 2024; cited from earlier work
HCT116 cells [9] = test system: HCT116 cells; parameters: method as in El Hamaky et al., 2024; details: ref El Hamaky et al., 2024, cited from earlier work
tubulin polymerization = test system: tubulin polymerization; parameters: method as in El Hamaky et al., 2024; details: ref El Hamaky et al., 2024; cited from earlier work
topoisomerase II [10] = test system: topoisomerase II; parameters: method as in El Hamaky et al., 2024; details: ref El Hamaky et al., 2024; cited from earlier work
[11] = A549, 48 h, read-out: IC50 48 h
[12] = A549, 72 h, read-out: IC50 72 h

Row | SMILES | viability at 48 h, 40 µM [5] [%] | viability at 40 µM (A549 [6]) [%] | viability at 40 µM (Huh7) [%] | viability at 40 µM (MCF-7) [%] | viability at 40 µM (SKOV3) [%] | viability at 40 µM (HCT-116) [%] | also measured
1 | COc1c2n(cc(C(=O)Nc3cccc(-c4cn(-c5c(C)cc(C)cc5C)nn4)c3)c1=O)C[C@H]1OC[C@H](C)N1C2=O [compound 7] |  |  |  |  |  |  | apoptosis, G2/M phase arrest, and DNA damage (HepG2 cells; concentration-dependent): induced; IC50 (HepG2 cells): 4.07 ± 0.09 µM
2 | N#Cc1ccc(-n2nnc3c2-c2cc(Cl)c4cccnc4c2OC3)cc1 [compound 9] |  |  |  |  |  |  | IC50 (HeLa cells): 3.38 ± 1.14 µM
3 | O=C1COc2ccc(-c3[nH]c(-c4ccc(C(F)(F)F)cc4)nc3-c3ccccc3)cc2N1 [compound 5] |  |  |  |  |  |  | viability of DLD-1 cells (DLD-1): significantly reduced; viability of MV4-11 cells (MV4-11): significantly reduced; viability of A549 cells (A549 [1]): significantly reduced
4 | COc1ccc(-c2nc3ccccc3c(=O)n2C/C=C/c2ccc(C(=O)CN3C(=O)COc4ccccc43)cc2)c(OC)c1OC [compound 3] |  |  |  |  |  |  | GI50 (A549 cells [2]): 0.32 µM
5 | COc1ccc(N2C(=O)COc3ccc(-c4cnc(OC)c(NS(=O)(=O)c5ccc(F)cc5)c4)cc32)cc1 [compound 6] |  |  |  |  |  |  | IC50 (HeLa): 1.35 µM; IC50 (A549 cells [3]): 1.22 µM; IC50 (PI3Kα): 0.00063 µM; oral bioavailability [4]: good
6 | O=C1COc2ccc(NC(=O)c3cccc(-c4cn(Cc5ccccc5F)nn4)c3)cc2N1 [Compound 13j] | 125.8 ± 0.46 | 53.6 ± 2.43 | 97.2 ± 2.59 | 107 ± 2.73 | 92.73 ± 0.81 | 60.3 ± 1.3 | IC50 (A549 [6]; [11]): 43.5 ± 5.67 µM; IC50 (A549 [6]; [12]): 35.3 ± 5.81 µM
7 | O=C1COc2ccc(NC(=O)c3cccc(-c4cn(Cc5ccc(Br)cc5F)nn4)c3)cc2N1 [Compound 13l] | 101.5 ± 0.49 | 57 ± 2.02 | 119 ± 2.06 | 105 ± 2.42 | 91.6 ± 2.21 | 110 ± 5.15 | IC50 (A549 [6]; [11]): > 100 µM; IC50 (A549 [6]; [12]): 79.2 ± 6.11 µM
8 | O=C1COc2ccc(NC(=O)c3cccc(-c4cn(-c5ccc(C(F)(F)F)cc5)nn4)c3)cc2N1 [Compound 14a] | 111.6 ± 0.81 | 88.4 ± 7.15 | 114 ± 1.46 | 101 ± 3.09 | 103 ± 2.87 | 110 ± 5.19 | 
9 | COc1ccc(/C=C/C(=O)c2ccc(-n3cc(CN4CCN(c5cc6c(cc5F)c(=O)c(C(=O)O)cn6C5CC5)CC4)nn3)cc2)cc1OC [compound 10] |  |  |  |  |  |  | IC50 (HCT116 cells [7]): 10.6 ± 0.8 µM; IC50 (topoisomerase II [8]): 19.7 ± 0.79 µM
10 | O=C1COc2ccc(NC(=O)c3cccc(-c4cn(Cc5c(F)cccc5Cl)nn4)c3)cc2N1 [Compound 13e] | 108 ± 1.19 | 45.95 ± 0.35 | 126 ± 1.82 | 120 ± 3.06 | 85.8 ± 4.65 | 60.9 ± 1.95 | IC50 (A549 [6]; [11]): > 100 µM; IC50 (A549 [6]; [12]): 64.7 ± 7.35 µM; inhibition at 40 µM (A549 [6]): > 50%
11 | O=C1COc2ccc(NC(=O)c3cccc(-c4cn(Cc5cc(F)c(F)c(F)c5)nn4)c3)cc2N1 [Compound 13c] | 101 ± 1.59 | 63 ± 1 | 110 ± 1.2 | 91.4 ± 2.78 | 88.5 ± 1.16 | 68.2 ± 3.35 | IC50 (A549 [6]; [11]): > 100 µM; IC50 (A549 [6]; [12]): 64 ± 6.77 µM
12 | O=C1COc2ccc(NC(=O)c3cccc(-c4cn(Cc5ccc(Br)cc5)nn4)c3)cc2N1 [Compound 13a] | 110 ± 1.16 | 105 ± 3.6 | 109 ± 2.48 | 107 ± 3.39 | 104 ± 2.08 | 115 ± 4.01 | 
13 | O=C1COc2ccc(NC(=O)c3cccc(-c4cn(Cc5ccccc5Br)nn4)c3)cc2N1 [Compound 13q] | 114.9 ± 0.85 | 29.3 ± 1.12 | 123 ± 1.89 | 97.9 ± 2.13 | 89.5 ± 3.23 | 77.1 ± 2.31 | IC50 (A549 [6]; [11]): 29.4 ± 3.49 µM; IC50 (A549 [6]; [12]): 34.9 ± 5.25 µM; inhibition at 40 µM (A549 [6]): > 50%
14 | O=C1COc2ccc(NC(=O)c3cccc(-c4cn(Cc5ccc(F)cc5Cl)nn4)c3)cc2N1 [Compound 13t] | 103 ± 2.67 | 96.6 ± 2.07 | 101 ± 3.53 | 97.9 ± 2.53 | 97.2 ± 1.54 | 114 ± 1.76 | 
15 | Cc1cc(C)cc(Cn2cc(-c3cccc(C(=O)Nc4ccc5c(c4)NC(=O)CO5)c3)nn2)c1 [Compound 13b] | 105.7 ± 0.38 | 114.5 ± 1.06 | 108 ± 1.9 | 112 ± 2.33 | 115 ± 2.08 | 124 ± 4.48 | 
16 | COc1cc(/C=C/C(=O)c2ccc3c(c2)NC(=O)CO3)cc(OC)c1 [compound 4] |  |  |  |  |  |  | A549 lung cancer cell growth (A549 lung cancer cell): effectively suppressed
17 | Cc1ccc(NC(=O)Cn2cc(CSc3nc4ccccc4c(=O)n3-c3ccccc3)nn2)cc1 [compound 8] |  |  |  |  |  |  | topoisomerase I inhibition (topoisomerase I): significantly inhibited; γ-H2AX protein expression (HCT116 cells [9]; HCT116): upregulated; IC50 (HCT116 cells [9]): 4.87 ± 0.78 µM; tubulin polymerization inhibition (tubulin polymerization): significantly inhibited; topoisomerase II inhibition (topoisomerase II [10]): significantly inhibited

Reference: paper PMC12202533, “Mechanistic Insights and Anti-cancer Activity of 2H-benzo[b][1,4]oxazin-3(4H)-one Linked 1,2,3-Triazoles in Human Cancer Cells” (Frontiers in Pharmacology, 2025)
